Assay results reported in patent publication US10934298B2, “Substituted pyrazolo[1,5-a]pyrimidines for the treatment of medical disorders” (BIAL—BioTech Investments, Inc., priority 2016, dated 2021).

Target: T1, glucocerebrosidase (Gcase) (Homo sapiens, UniProt P04062)
T1 construct: micellar solution containing 10 nM GCase and 100 nM saposin C
T1 sequence (P04062 40-536): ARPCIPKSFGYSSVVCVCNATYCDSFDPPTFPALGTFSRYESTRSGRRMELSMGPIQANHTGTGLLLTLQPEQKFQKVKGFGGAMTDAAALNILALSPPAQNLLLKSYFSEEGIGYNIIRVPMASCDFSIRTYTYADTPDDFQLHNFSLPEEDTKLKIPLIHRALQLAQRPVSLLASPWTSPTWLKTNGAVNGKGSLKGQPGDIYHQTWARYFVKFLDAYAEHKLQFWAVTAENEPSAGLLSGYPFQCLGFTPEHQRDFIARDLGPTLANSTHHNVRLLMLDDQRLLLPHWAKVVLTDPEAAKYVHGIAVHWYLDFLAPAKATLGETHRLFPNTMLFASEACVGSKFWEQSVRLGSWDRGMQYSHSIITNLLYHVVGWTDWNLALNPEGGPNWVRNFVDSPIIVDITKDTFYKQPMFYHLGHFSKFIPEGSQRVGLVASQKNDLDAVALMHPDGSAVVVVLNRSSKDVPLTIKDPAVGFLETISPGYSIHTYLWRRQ
Experiment: Glucocerebrosidase (Gcase) activation assay with 4-methylumbelliferyl-beta-D-glucopyranoside substrate, saposin C and phosphatidylserine/triton micelles, fluorescence readout
Assay type: biochemical
Method in brief: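 Readout is endpoint fluorescence (ex 365, em 440 nm) after glycine pH 12.5 stop of a 15-min room-temperature reaction. Enzyme mix: GCase 10 nM plus saposin C 100 nM in 0.37 mol % PS/0.32 mM triton micelles, pH 4.7, compound pre-incubated 30 min; substrate solution 2 mM before 1:1 mixing. Tested at 1.0/0.1 μM, then 3-fold, 8-point series up to 5 μM.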

Row | SMILES | Percent Gcase Activation, 0.1 μM Test Compound (test compound at 0.1 μM) | Percent Gcase Activation, 1 μM Test Compound (test compound at 1.0 μM) | Percent Gcase Activation, 0.1 μM Test Compound (0.1 μM test compound) | Percent Gcase Activation, 1 μM Test Compound (1 μM test compound) | further results
1 | Cc1cc(-c2ccc(F)cc2)nc2c(C(=O)NC(C3CC3)C(F)(F)F)cnn12 (stereo not drawn) [III-163] | *** (greater than 20% Gcase activation) | +++ (Gcase activation greater than 60%) |  |  | 
2 | Cc1cc(N2CCCCC2)nc2c(C(=O)NC(C)(C)C3CC3)cnn12 [III-23] |  |  |  |  | Percent Gcase Activation, 0.1 μM Test Compound (0.1 μM test compound, Table 3A): *** (greater than 20% Gcase activation); Percent Gcase Activation, 1 μM Test Compound (1 μM test compound, Table 3A): +++ (Gcase activation greater than 60%)
3 | Cc1cc(N2CC(C)(C)NC2=O)nc2c(C(=O)NC(C3CC3)C(F)(F)F)cnn12 (stereo not drawn) [III-319] |  |  | ** (Gcase activation in the range of 10% up to 20%) | +++ (Gcase activation greater than 60%) | 
4 | Cc1cc(-c2cccc(C#N)c2)nc2c(C(=O)NC(C)(C)C3CC3)cnn12 [III-71] |  |  |  |  | Percent Gcase Activation, 0.1 μM Test Compound (0.1 μM test compound, Table 3A): *** (greater than 20% Gcase activation); Percent Gcase Activation, 1 μM Test Compound (1 μM test compound, Table 3A): +++ (Gcase activation greater than 60%)
5 | Cc1cc(N2CCOCC2)nc2c(C(=O)NC(C)C3CC3)cnn12 (stereo not drawn) [III-58] |  |  |  |  | Percent Gcase Activation, 0.1 μM Test Compound (0.1 μM test compound, Table 3A): * (less than 10% Gcase activation); Percent Gcase Activation, 1 μM Test Compound (1 μM test compound, Table 3A): + (less than 30% Gcase activation)
6 | Cc1cc(-c2cc(C#N)ccc2F)nc2c(C(=O)N[C@@H](C)C(F)(F)F)cnn12 [III-352] |  |  | ** (Gcase activation in the range of 10% up to 20%) | +++ (Gcase activation greater than 60%) | 
7 | Cc1cc(-n2ccc(Cl)n2)nc2c(C(=O)NC(C)C(F)(F)F)cnn12 (stereo not drawn) [III-170] | ** (Gcase activation in the range of 10% up to 20%) | ++ (Gcase activation in the range of 30% up to 60%) |  |  | 
8 | Cc1cc(N2CCCCC2)n2ncc(C(=O)NC(C)(C)C3CC3)c2n1 [III-22] |  |  |  |  | Percent Gcase Activation, 0.1 μM Test Compound (0.1 μM test compound, Table 3A): * (less than 10% Gcase activation); Percent Gcase Activation, 1 μM Test Compound (1 μM test compound, Table 3A): ++ (Gcase activation in the range of 30% up to 60%)
9 | Cc1cc(-c2cncc(C#N)c2)nc2c(C(=O)NC(C)(C)C3CC3)cnn12 [III-369] |  |  | ** (Gcase activation in the range of 10% up to 20%) | +++ (Gcase activation greater than 60%) | 
10 | Cc1ccncc1-c1cc(C)n2ncc(C(=O)NC(C3CC3)C(F)(F)F)c2n1 (stereo not drawn) [III-274] | * (less than 10% Gcase activation) | +++ (Gcase activation greater than 60%) |  |  | 
11 | Cc1cc(-c2ccccn2)nc2c(C(=O)NC(C3CC3)C(F)(F)F)cnn12 (stereo not drawn) [III-36] |  |  |  |  | Percent Gcase Activation, 0.1 μM Test Compound (0.1 μM test compound, Table 3A): *** (greater than 20% Gcase activation); Percent Gcase Activation, 1 μM Test Compound (1 μM test compound, Table 3A): +++ (Gcase activation greater than 60%)
12 | CCc1cc(N2CCN(C(C)C)C2=O)nc2c(C(=O)NC(C)(C)C)cnn12 [III-229] | * (less than 10% Gcase activation) | ++ (Gcase activation in the range of 30% up to 60%) |  |  | 
13 | CCc1cc(N2CCN(C(C)C)C2=O)nc2c(C(=O)NC(C)C(F)(F)F)cnn12 (stereo not drawn) [III-226] | * (less than 10% Gcase activation) | ++ (Gcase activation in the range of 30% up to 60%) |  |  | 
14 | Cc1cc(-c2ccc(C(F)(F)F)nc2)nc2c(C(=O)NC(C)C(F)(F)F)cnn12 (stereo not drawn) [III-288] |  |  | ** (Gcase activation in the range of 10% up to 20%) | +++ (Gcase activation greater than 60%) | 
15 | Cc1cc(C)n2ncc(C(=O)N[C@@H](C)C3CCCCC3)c2n1 [III-4] |  |  |  |  | Percent Gcase Activation, 0.1 μM Test Compound (0.1 μM test compound, Table 3A): *** (greater than 20% Gcase activation); Percent Gcase Activation, 1 μM Test Compound (1 μM test compound, Table 3A): +++ (Gcase activation greater than 60%)
16 | Cc1cncc(-c2cc(C)n3ncc(C(=O)NC(C)C(F)(F)F)c3n2)c1 (stereo not drawn) [III-282] | ** (Gcase activation in the range of 10% up to 20%) | +++ (Gcase activation greater than 60%) |  |  | 
17 | Cc1cc(-c2cccc(Cl)n2)nc2c(C(=O)NC(C)(C)C3CC3)cnn12 [III-62] |  |  |  |  | Percent Gcase Activation, 0.1 μM Test Compound (0.1 μM test compound, Table 3A): *** (greater than 20% Gcase activation); Percent Gcase Activation, 1 μM Test Compound (1 μM test compound, Table 3A): +++ (Gcase activation greater than 60%)
18 | Cc1cc(-c2ccc(Cl)nc2)nc2c(C(=O)N[C@H](C3CC3)C(F)(F)F)cnn12 [III-117] | *** (greater than 20% Gcase activation) | +++ (Gcase activation greater than 60%) |  |  | 
19 | Cc1cncc(-c2cc(C)n3ncc(C(=O)NC(C4CC4)C(F)(F)F)c3n2)c1 (stereo not drawn) [III-275] | *** (greater than 20% Gcase activation) | +++ (Gcase activation greater than 60%) |  |  | 
20 | C#CC(C)(C)NC(=O)c1cnn2c(C)cc(-c3cccc(Cl)c3)nc12 [III-81] |  |  |  |  | Percent Gcase Activation, 0.1 μM Test Compound (0.1 μM test compound, Table 3A): *** (greater than 20% Gcase activation); Percent Gcase Activation, 1 μM Test Compound (1 μM test compound, Table 3A): +++ (Gcase activation greater than 60%)
21 | Cc1cc(-c2cccc3ocnc23)nc2c(C(=O)NC(C3CC3)C(F)(F)F)cnn12 (stereo not drawn) [III-106] | *** (greater than 20% Gcase activation) | ++ (Gcase activation in the range of 30% up to 60%) |  |  | 

The next lines start with results.

Row | Percent Gcase Activation, 0.1 μM Test Compound (test compound at 0.1 μM) | Percent Gcase Activation, 1 μM Test Compound (test compound at 1.0 μM) | Percent Gcase Activation, 0.1 μM Test Compound (0.1 μM test compound) | Percent Gcase Activation, 1 μM Test Compound (1 μM test compound) | SMILES | further results
22 |  |  | * (less than 10% Gcase activation) | + (less than 30% Gcase activation) | Cc1nsc(C)c1-c1cc(C)n2ncc(C(=O)N[C@H](C3CC3)C(F)(F)F)c2n1 [III-385] | 
23 |  |  | *** (greater than 20% Gcase activation) | +++ (Gcase activation greater than 60%) | COc1ccc(F)c(-c2cc(C)n3ncc(C(=O)NC(C)C(F)(F)F)c3n2)c1 (stereo not drawn) [III-409] | 
24 |  |  | *** (greater than 20% Gcase activation) | +++ (Gcase activation greater than 60%) | Cc1cc(-c2noc(C(C)C)n2)nc2c(C(=O)N[C@@H](C)C(F)(F)F)cnn12 [III-401] | 
25 |  |  | *** (greater than 20% Gcase activation) | +++ (Gcase activation greater than 60%) | Cc1occc1-c1cc(C)n2ncc(C(=O)N[C@H](C)C(F)(F)F)c2n1 [III-340] | 
26 |  |  | *** (greater than 20% Gcase activation) | +++ (Gcase activation greater than 60%) | Cc1cc(-c2cc(C)n3ncc(C(=O)N[C@H](C4CC4)C(F)(F)F)c3n2)on1 [III-343] | 
27 |  |  | * (less than 10% Gcase activation) | + (less than 30% Gcase activation) | Cc1cc(-c2cccnn2)nc2c(C(=O)NC(C3CC3)C(F)(F)F)cnn12 (stereo not drawn) [III-324] | 
28 |  |  | *** (greater than 20% Gcase activation) | +++ (Gcase activation greater than 60%) | Cc1conc1-c1cc(C)n2ncc(C(=O)N[C@H](C3CC3)C(F)(F)F)c2n1 [III-342] | 
29 |  |  | *** (greater than 20% Gcase activation) | +++ (Gcase activation greater than 60%) | Cc1cc(-c2cccnc2C#N)nc2c(C(=O)N[C@@H](C3CC3)C(F)(F)F)cnn12 [III-366] | 
30 |  |  | *** (greater than 20% Gcase activation) | +++ (Gcase activation greater than 60%) | Cc1cc(-c2cccc(F)c2)nc2c(C(=O)N[C@@H](C)C(F)(F)F)cnn12 [III-362] | 
